# Values of other authors, collected in patent US20230149425A1, “PROCESS AND THERAPEUTIC COMPOSITION FOR TREATING AND PREVENTING SEVERE INJECTION SITE REACTIONS” (Brii Biosciences, Inc., priority 2021, published 2023).
# Columns and labels:
# [1] = oral
# [2] = lactating women
structure (smiles),measurement,setting,value
C[C@@]1(O)CC[C@H]2[C@H](CC[C@@H]3[C@@H]2CC[C@]2(C)[C@@H](C(=O)Cn4cc(C#N)cn4)CC[C@@H]32)C1 [SAGE-217],reduction of depressive symptoms in clinical trials,[1]; administration for 14 days,mixed results
same,adverse events versus placebo,[1]; clinical trials,more adverse events than the placebo
"CC(=O)[C@H]1CC[C@H]2[C@@H]3CC[C@H]4C[C@H](O)CC[C@]4(C)[C@H]3CC[C@]12C [brexanolone, 5α-pregnane-3α-ol-20-one]",concentrations in milk and plasma,[2],low
same,risk to breastfed infants,[2],low risk
C[C@]12CCC(=O)C=C1CC[C@@H]1[C@@H]2C(=O)C[C@@]2(C)[C@H]1CC[C@]2(O)C(=O)CO [cortisone],safety and pain relief of injection in lactating women,,safe and efficient for pain relief
